Source: ChEMBL document CHEMBL3351452, “Chemical synthesis, cytotoxicity, selectivity and bioavailability of 5α-androstane-3α,17β-diol derivatives” (Bioorg Med Chem, 2014)

Columns and labels:
[1] = Cytotoxicity against human peripheral blood lymphocytes assessed as assessed as CD3+/CD4+ T cells population at 50 uM after 5 days by flow cytometry analysis (reference value: 41.4%); format: cell-based; conditions: lymphocyte, 120 h
[2] = Cytotoxicity against human peripheral blood lymphocytes assessed as assessed as CD19+ B cells population at 30 uM after 5 days by flow cytometry analysis (reference value: 2%); format: cell-based; conditions: lymphocyte, 120 h
[3] = Cytotoxicity against human peripheral blood lymphocytes assessed as assessed as CD3+ T cells population at 30 uM after 5 days by flow cytometry analysis (reference value: 73.8%); format: cell-based; conditions: lymphocyte, 120 h
[4] = Cytotoxicity against human peripheral blood lymphocytes assessed as assessed as CD3+/CD4+ T cells population at 0.1 uM after 5 days by flow cytometry analysis (reference value: 41.4%); format: cell-based; conditions: lymphocyte, 120 h
HL-60 = assay: Antiproliferative activity against human HL-60 cells assessed as reduction in cell growth after 24 hrs by MTS assay; format: functional, cell-based; conditions: HL-60, 24 h
[5] = Cytotoxicity against human peripheral blood lymphocytes assessed as assessed as CD3+/CD8 T cells population at 0.1 uM after 5 days by flow cytometry analysis (reference value: 15.2 %); format: cell-based; conditions: lymphocyte, 120 h
[6] = Cytotoxicity against human peripheral blood lymphocytes assessed as assessed as CD3+/CD8 T cells population at 5 uM after 5 days by flow cytometry analysis (reference value: 15.2 %); format: cell-based; conditions: lymphocyte, 120 h
[7] = Cytotoxicity against human peripheral blood lymphocytes assessed as assessed as CD4+/CD8+ […] ratio at 30 uM after 5 days by flow cytometry analysis (reference value: 2.7%); format: cell-based; conditions: lymphocyte, 120 h
[8] = Cytotoxicity against human peripheral blood lymphocytes assessed as assessed as CD4+/CD8+ […] ratio at 1 uM after 5 days by flow cytometry analysis (reference value: 2.7%); format: cell-based; conditions: lymphocyte, 120 h
[9] = Cytotoxicity against mouse WEHI13 cells assessed as cell proliferation after 48 hrs by MTT assay; format: cell-based; conditions: WEHI13, 48 h
[10] = Cytotoxicity against human peripheral blood lymphocytes assessed as assessed as CD3+ T cells population at 0.1 uM after 5 days by flow cytometry analysis (reference value: 73.8%); format: cell-based; conditions: lymphocyte, 120 h
[11] = Cytotoxicity against human peripheral blood lymphocytes assessed as assessed as CD3+/CD8 T cells population at 1 uM after 5 days by flow cytometry analysis (reference value: 15.2%); format: cell-based; conditions: lymphocyte, 120 h
[12] = Cytotoxicity against human peripheral blood lymphocytes assessed as assessed as CD3+ T cells population at 50 uM after 5 days by flow cytometry analysis (reference value: 73.8%); format: cell-based; conditions: lymphocyte, 120 h
MCF7 = assay: Antiproliferative activity against human MCF7 cells assessed as reduction in cell growth after 24 hrs by MTS assay; format: functional, cell-based; conditions: MCF7, 24 h
[13] = Cytotoxicity against human peripheral blood lymphocytes assessed as assessed as CD3+/CD8 T cells population at 30 uM after 5 days by flow cytometry analysis (reference value: 15.2 %); format: cell-based; conditions: lymphocyte, 120 h
[14] = Cytotoxicity against human peripheral blood lymphocytes assessed as assessed as CD4+/CD8+ […] ratio at 50 uM after 5 days by flow cytometry analysis (reference value: 2.7%); format: cell-based; conditions: lymphocyte, 120 h
[15] = Cytotoxicity against human peripheral blood lymphocytes assessed as assessed as CD4+/CD8+ […] ratio at 10 uM after 5 days by flow cytometry analysis (reference value: 2.7 %); format: cell-based; conditions: lymphocyte, 120 h
[16] = Cytotoxicity against human peripheral blood lymphocytes assessed as assessed as CD3+/CD4+ T cells population at 30 uM after 5 days by flow cytometry analysis (reference value: 41.4%); format: cell-based; conditions: lymphocyte, 120 h
[17] = Cytotoxicity against human peripheral blood lymphocytes assessed as assessed as CD19+ B cells population at 10 uM after 5 days by flow cytometry analysis (reference value: 2%); format: cell-based; conditions: lymphocyte, 120 h
[18] = Cytotoxicity against human peripheral blood lymphocytes assessed as assessed as CD3+/CD4+ T cells population at 1 uM after 5 days by flow cytometry analysis (reference value: 41.4%); format: cell-based; conditions: lymphocyte, 120 h
[19] = Cytotoxicity against human peripheral blood lymphocytes assessed as assessed as CD3+ T cells population at 10 uM after 5 days by flow cytometry analysis (reference value: 73.8%); format: cell-based; conditions: lymphocyte, 120 h
[20] = Cytotoxicity against human peripheral blood lymphocytes assessed as assessed as CD3+ T cells population at 1 uM after 5 days by flow cytometry analysis (reference value: 73.8%); format: cell-based; conditions: lymphocyte, 120 h
[21] = Cytotoxicity against human peripheral blood lymphocytes assessed as assessed as CD3+/CD8 T cells population at 10 uM after 5 days by flow cytometry analysis (reference value: 15.2 %); format: cell-based; conditions: lymphocyte, 120 h
LNCaP = assay: Antiproliferative activity against human LNCAP cells assessed as reduction in cell growth after 24 hrs by MTS assay; format: functional, cell-based
[22] = Plasma concentration in Sprague-Dawley rat at 2.3 mg/kg, sc measured at 12 hrs by LC/MS/MS analysis; format: ADME, organism-based; design: dose 2.3 mg/kg, route subcutaneous
[23] = Cytotoxicity against human peripheral blood lymphocytes assessed as assessed as CD4+/CD8+ […] ratio at 0.1 uM after 5 days by flow cytometry analysis (reference value: 2.7%); format: cell-based; conditions: lymphocyte, 120 h
[24] = Cytotoxicity against human peripheral blood lymphocytes assessed as assessed as CD3+/CD4+ T cells population at 10 uM after 5 days by flow cytometry analysis (reference value: 41.4 %); format: cell-based; conditions: lymphocyte, 120 h
[25] = Cytotoxicity against human peripheral blood lymphocytes assessed as assessed as CD19+ B cells population at 5 uM after 5 days by flow cytometry analysis (reference value: 2%); format: cell-based; conditions: lymphocyte, 120 h
T47D = assay: Antiproliferative activity against human T47D cells assessed as reduction in cell growth after 24 hrs by MTS assay; format: functional, cell-based
[26] = Cytotoxicity against human peripheral blood lymphocytes assessed as assessed as CD19+ B cells population at 1 uM after 5 days by flow cytometry analysis (reference value: 2%); format: cell-based; conditions: lymphocyte, 120 h
[27] = Cytotoxicity against human peripheral blood lymphocytes assessed as assessed as CD4+/CD8+ […] ratio at 5 uM after 5 days by flow cytometry analysis (reference value: 2.7%); format: cell-based; conditions: lymphocyte, 120 h
[28] = Cytotoxicity against human peripheral blood lymphocytes assessed as assessed as CD19+ B cells population at 0.1 uM after 5 days by flow cytometry analysis (reference value: 2%); format: cell-based; conditions: lymphocyte, 120 h
[29] = Cytotoxicity against human peripheral blood lymphocytes assessed as assessed as CD19+ B cells population at 50 uM after 5 days by flow cytometry analysis (reference value: 2%); format: cell-based; conditions: lymphocyte, 120 h
[30] = Cytotoxicity against human peripheral blood lymphocytes assessed as assessed as CD3+ T cells population at 5 uM after 5 days by flow cytometry analysis (reference value: 73.8%); format: cell-based; conditions: lymphocyte, 120 h
[31] = Cytotoxicity against human peripheral blood lymphocytes assessed as assessed as CD3+/CD4+ T cells population at 5 uM after 5 days by flow cytometry analysis (reference value: 41.4%); format: cell-based; conditions: lymphocyte, 120 h
Cytochrome P450 2D6 = Cytochrome P450 2D6 (Homo sapiens, UniProt P10635); assay: Inhibition of CYP2D6 (unknown origin) using AMMC by fluorescence assay; format: ADME
Sequence of Cytochrome P450 2D6 (P10635 whole entry): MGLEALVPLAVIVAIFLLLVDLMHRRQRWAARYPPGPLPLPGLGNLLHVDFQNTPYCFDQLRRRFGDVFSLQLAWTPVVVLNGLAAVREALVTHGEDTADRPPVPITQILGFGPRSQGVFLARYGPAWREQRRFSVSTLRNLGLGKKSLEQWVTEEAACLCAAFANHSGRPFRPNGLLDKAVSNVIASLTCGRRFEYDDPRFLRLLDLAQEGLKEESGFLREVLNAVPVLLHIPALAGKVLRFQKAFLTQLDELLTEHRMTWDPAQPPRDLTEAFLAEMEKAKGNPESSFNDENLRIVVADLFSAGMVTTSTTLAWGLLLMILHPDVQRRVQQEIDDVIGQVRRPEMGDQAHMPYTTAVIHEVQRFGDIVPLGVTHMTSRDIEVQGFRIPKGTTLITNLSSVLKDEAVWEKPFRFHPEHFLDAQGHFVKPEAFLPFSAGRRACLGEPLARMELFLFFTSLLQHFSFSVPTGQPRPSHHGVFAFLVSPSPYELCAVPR

Cytochrome P450 3A4 = Cytochrome P450 3A4 (Homo sapiens, UniProt P08684); assay: Inhibition of CYP3A4 (unknown origin) using AMMC by fluorescence assay; format: ADME
Sequence of Cytochrome P450 3A4 (P08684 whole entry): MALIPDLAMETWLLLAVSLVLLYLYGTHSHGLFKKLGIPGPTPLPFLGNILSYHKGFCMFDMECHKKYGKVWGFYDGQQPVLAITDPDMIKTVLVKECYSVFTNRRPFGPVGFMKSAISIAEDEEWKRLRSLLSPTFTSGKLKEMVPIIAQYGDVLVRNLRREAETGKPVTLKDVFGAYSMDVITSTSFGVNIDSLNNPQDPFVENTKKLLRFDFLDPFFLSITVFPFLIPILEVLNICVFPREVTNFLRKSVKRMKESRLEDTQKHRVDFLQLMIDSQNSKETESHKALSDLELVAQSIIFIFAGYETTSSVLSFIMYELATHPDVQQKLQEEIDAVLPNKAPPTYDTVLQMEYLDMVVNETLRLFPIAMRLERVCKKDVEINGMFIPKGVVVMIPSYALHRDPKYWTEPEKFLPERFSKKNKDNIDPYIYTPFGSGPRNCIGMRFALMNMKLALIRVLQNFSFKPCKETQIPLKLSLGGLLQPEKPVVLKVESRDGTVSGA

[32] = Cytotoxicity against human peripheral blood lymphocytes assessed as assessed as CD3+/CD8 T cells population at 50 uM after 5 days by flow cytometry analysis (reference value: 15.2 %); format: cell-based; conditions: lymphocyte, 120 h
[33] = Plasma concentration in Sprague-Dawley rat at 2.3 mg/kg, sc measured at 3 hrs by LC/MS/MS analysis; format: ADME, organism-based; design: dose 2.3 mg/kg, route subcutaneous

Structure (SMILES): C#C[C@]1(O)CC[C@H]2[C@@H]3CC[C@H]4C[C@H](O)[C@@H](N5CCN(C(=O)[C@@H]6CCCN6C(=O)c6ccc7ccccc7n6)CC5)C[C@]4(C)[C@H]3CC[C@@]21C
- Activity [1]: 23.1%
- Activity [2]: 1.9%
- Activity [3]: 58.5%
- Activity [4]: 16.9%
- IC50 (HL-60): 100 nM
- Activity [5]: 12.1%
- Activity [6]: 3.3%
- Activity [7]: 216%
- Activity [8]: 5%
- IC50 [9]: 1100 nM
- Activity [10]: 57.5%
- Activity [11]: 3.3%
- Activity [12]: 62.1%
- IC50 (MCF7): 100 nM
- Activity [13]: 0.1%
- Activity [14]: 231%
- Activity [15]: 11.3%
- Activity [16]: 21%
- Activity [17]: 1.4%
- Activity [18]: 16.6%
- Activity [19]: 55.1%
- Activity [20]: 53.7%
- Activity [21]: 1.6%
- IC50 (LNCaP): 2000 nM
- concentration at 12 h [22]: 15.7 ng/mL
- Activity [23]: 1.4%
- Activity [24]: 18.4%
- Activity [25]: 1.7%
- IC50 (T47D): 100 nM
- Activity [26]: 2.2%
- Activity [27]: 6%
- Activity [28]: 1.1%
- Activity [29]: 1.8%
- Activity [30]: 59.1%
- Activity [31]: 19.5%
- IC50 (Cytochrome P450 2D6): 25000 nM
- IC50 (Cytochrome P450 3A4): 3800 nM
- Activity [32]: 0.1%
- concentration at 3 h [33]: 151 ng/mL
